Experimental data as given in ChEMBL document CHEMBL4814052, “Isatin-derived azoles as new potential antimicrobial agents: Design, synthesis and biological evaluation” (2021).
Converted amounts (≈) assume the structure as drawn. The source made the active and inactive calls. No cut-off for these calls is given here.

Assays:
Assay type in all cases: functional
Staphylococcus aureus [1] = assay: Antibacterial activity against methicillin resistant Staphylococcus aureus by broth microdilution method
Enterococcus faecalis = assay: Antibacterial activity against Enterococcus faecalis by broth microdilution method
Staphylococcus aureus [2] = assay: Antibacterial activity against Staphylococcus aureus by broth microdilution method
Staphylococcus aureus [3] = assay: Antibacterial activity against Staphylococcus aureus ATCC 25923 by broth microdilution method
Staphylococcus aureus [4] = assay: Antibacterial activity against Staphylococcus aureus ATCC 29213 by broth microdilution method
Klebsiella pneumoniae = assay: Antibacterial activity against Klebsiella pneumonia by broth microdilution method
Escherichia coli [5] = assay: Antibacterial activity against Escherichia coli by broth microdilution method
Escherichia coli [6] = assay: Antibacterial activity against Escherichia coli ATCC 25922 by broth microdilution method
Pseudomonas aeruginosa [7] = assay: Antibacterial activity against Pseudomonas aeruginosa by broth microdilution method
Pseudomonas aeruginosa [8] = assay: Antibacterial activity against Pseudomonas aeruginosa ATCC 27853 by broth microdilution method
Acinetobacter baumannii = assay: Antibacterial activity against Acinetobacter baumannii by broth microdilution method
Candida tropicalis = assay: Antifungal activity against Candida tropicalis

SMILES | MIC (Staphylococcus aureus [1]) [µg/mL] | MIC (Enterococcus faecalis) [µg/mL] | MIC (Staphylococcus aureus [2]) [µg/mL] | MIC (Staphylococcus aureus [3]) [µg/mL] | MIC (Staphylococcus aureus [4]) [µg/mL] | MIC (Klebsiella pneumoniae) [µg/mL] | MIC (Escherichia coli [5]) [µg/mL] | MIC (Escherichia coli [6]) [µg/mL] | MIC (Pseudomonas aeruginosa [7]) [µg/mL] | MIC (Pseudomonas aeruginosa [8]) [µg/mL] | MIC (Acinetobacter baumannii) [µg/mL] | Activity (Candida tropicalis)
Cc1ccc(C(=O)/C=C2\C(=O)N(CCn3cncn3)c3ccccc32)cc1 | 128 (≈ 357 µM) | 256 (≈ 714 µM) | 64 (≈ 179 µM) | 8 (≈ 22.3 µM) | 256 (≈ 714 µM) | 256 (≈ 714 µM) | 64 (≈ 179 µM) | 256 (≈ 714 µM) | 128 (≈ 357 µM) | 512 (≈ 1430 µM) | 32 (≈ 89.3 µM) | 
O=C(/C=C1\C(=O)N(CCn2cncn2)c2ccccc21)c1ccc(O)cc1 | 256 (≈ 710 µM) | 128 (≈ 355 µM) | 128 (≈ 355 µM) | 128 (≈ 355 µM) | 32 (≈ 88.8 µM) | 256 (≈ 710 µM) | 128 (≈ 355 µM) | 256 (≈ 710 µM) | 256 (≈ 710 µM) | 256 (≈ 710 µM) | 64 (≈ 178 µM) | 
O=C1C(O)c2ccccc2N1CCn1cncn1 (stereo unspecified) | 128 (≈ 524 µM) | 128 (≈ 524 µM) | 128 (≈ 524 µM) | 64 (≈ 262 µM) | 64 (≈ 262 µM) | 128 (≈ 524 µM) | 128 (≈ 524 µM) | 256 (≈ 1050 µM) | 256 (≈ 1050 µM) | 128 (≈ 524 µM) | 64 (≈ 262 µM) | 
OC(Cn1cncn1)(Cn1cncn1)c1ccc(F)cc1F |  |  |  |  |  |  |  |  |  |  |  | Active
O=C1C(=O)N(CCn2cnc([N+](=O)[O-])c2)c2ccccc21 | 256 (≈ 894 µM) | 128 (≈ 447 µM) | 128 (≈ 447 µM) | 64 (≈ 224 µM) | 32 (≈ 112 µM) | 64 (≈ 224 µM) | 128 (≈ 447 µM) | 64 (≈ 224 µM) | 64 (≈ 224 µM) | 256 (≈ 894 µM) | 32 (≈ 112 µM) | 
O=C(/C=C1\C(=O)N(CCn2cncn2)c2ccccc21)c1ccccc1 | 256 (≈ 743 µM) | 128 (≈ 372 µM) | 128 (≈ 372 µM) | 128 (≈ 372 µM) | 128 (≈ 372 µM) | 64 (≈ 186 µM) | 64 (≈ 186 µM) | 8 (≈ 23.2 µM) | 32 (≈ 92.9 µM) | 128 (≈ 372 µM) | 128 (≈ 372 µM) | 
O=C1C(=O)N(CCn2ccnn2)c2ccccc21 | 256 (≈ 1060 µM) | 128 (≈ 528 µM) | 32 (≈ 132 µM) | 256 (≈ 1060 µM) | 256 (≈ 1060 µM) | 256 (≈ 1060 µM) | 256 (≈ 1060 µM) | 128 (≈ 528 µM) | 128 (≈ 528 µM) | 128 (≈ 528 µM) | 32 (≈ 132 µM) | 
O=C(CC1(O)C(=O)N(CCn2cncn2)c2ccccc21)c1ccccc1 (stereo unspecified) | 128 (≈ 353 µM) | 256 (≈ 706 µM) | 128 (≈ 353 µM) | 256 (≈ 706 µM) | 256 (≈ 706 µM) | 256 (≈ 706 µM) | 256 (≈ 706 µM) | 512 (≈ 1410 µM) | 512 (≈ 1410 µM) | 512 (≈ 1410 µM) | 64 (≈ 177 µM) | 
O=C1C(=O)N(CCn2nnc3ccccc32)c2ccccc21 | 128 (≈ 438 µM) | 512 (≈ 1750 µM) | 256 (≈ 876 µM) | 256 (≈ 876 µM) | 256 (≈ 876 µM) | 256 (≈ 876 µM) | 128 (≈ 438 µM) | 128 (≈ 438 µM) | 256 (≈ 876 µM) | 256 (≈ 876 µM) | 128 (≈ 438 µM) | 
CCCc1nccn1CCN1C(=O)C(=O)c2ccccc21 | 128 (≈ 452 µM) | 128 (≈ 452 µM) | 64 (≈ 226 µM) | 256 (≈ 904 µM) | 16 (≈ 56.5 µM) | 128 (≈ 452 µM) | 64 (≈ 226 µM) | 64 (≈ 226 µM) | 128 (≈ 452 µM) | 256 (≈ 904 µM) | 32 (≈ 113 µM) | 
O=C1C(=O)N(CCn2cncn2)c2ccccc21 | 256 (≈ 1060 µM) | 128 (≈ 528 µM) | 128 (≈ 528 µM) | 128 (≈ 528 µM) | 32 (≈ 132 µM) | 128 (≈ 528 µM) | 32 (≈ 132 µM) | 8 (≈ 33 µM) | 128 (≈ 528 µM) | 64 (≈ 264 µM) | 128 (≈ 528 µM) | 
